Measured values from patent US4112228A, “7-(D-α-Hydroxy-2-arylacetamido)-3-(2-carboxyalkyl-2,3-dihydro-s-tri azolo-[4,3-b]pyridazin-3-on-6-ylthiomethyl)-3-cephem-4-carboxylic acids and derivatives” (priority 1977, dated 1978).
Converted amounts (≈) assume the structure as drawn. Read-outs that look alike come from different tables or passages of the source.

Columns and labels:
Ps. aeruginosa = test: MIC by Steers' agar dilution method; conditions: Pseudomonas aeruginosa
E. coli = test: MIC by Steers' agar dilution method; format: cell-based; conditions: Escherichia coli
S. aureus Smith = test: Standard experimental infection in mice; format: in vivo; conditions: Table 6
St. faecalis = test: MIC by Steers' agar dilution method; conditions: Enterococcus faecalis
Shig. sonnei = test: MIC by Steers' agar dilution method; format: cell-based; conditions: Shigella sonnei, MHA
bacteria of Table 4 = test: Media effect on MIC (Nutrient, Mueller-Hinton, Heart-Infusion agar); format: cell-based; conditions: NA, MHA, HIA
Sal. typhosa = test: MIC by Steers' agar dilution method; format: cell-based; conditions: MHA

Compound: O=C(O)Cn1nc2ccc(SCC3=C(C(=O)O)N4C(=O)C(NC(=O)[C@H](O)c5ccccc5)[C@H]4SC3)nn2c1=O (stereo partly drawn) [BB-S488, 7-(D-Mandelamido)-3-(2-carboxymethyl-2,3-dihydro-s-triazolo[4,3-b]pyridazin-3-on-6-ylthiomethyl)-3-cephem-4-carboxylic Acid]
- MIC (Ps. aeruginosa; Pa-3 A9930, NA, Table 4): 100 mg/L (≈ 175 µM)
- MIC (Ps. aeruginosa; strain not given (1st of 2), MHA, Example 10): > 100 mg/L
- MIC (Ps. aeruginosa; strain not named (2nd of 2), MHA, Example 10): > 100 mg/L
- MIC (E. coli; A9660, MHA, Table 1, read-out: MIC): 0.05 mg/L (≈ 0.0873 µM)
- MIC (E. coli; A15147, MHA, Table 1, read-out: MIC): 3.1 mg/L (≈ 5.41 µM)
- MIC (E. coli; A15810, MHA, Table 1, read-out: MIC): 0.1 mg/L (≈ 0.175 µM)
- MIC (E. coli; ATCC8739, ATCC 8739, MHA, Example 10): 6.3 mg/L (≈ 11 µM)
- MIC (E. coli; ATCC8739, ATCC 8739, MHA, Table 1, read-out: MIC): 0.1 mg/L (≈ 0.175 µM)
- MIC (E. coli; ATCC8739, Ec-15 ATCC 8739, HIA, Table 4, read-out: MIC): 0.2 mg/L (≈ 0.349 µM)
- MIC (E. coli; ATCC8739, Ec-15 ATCC 8739, MHA, Table 3, read-out: MIC): 0.2 mg/L (≈ 0.349 µM)
- MIC (E. coli; ATCC8739, Ec-15 ATCC 8739, MHA, Table 4, read-out: MIC): 0.2 mg/L (≈ 0.349 µM)
- MIC (E. coli; ATCC8739, Ec-15 ATCC 8739, NA, Table 4, read-out: MIC): 0.1 mg/L (≈ 0.175 µM)
- MIC (E. coli; BX-1373, MHA, Example 10, read-out: MIC): 3.1 mg/L (≈ 5.41 µM)
- MIC (E. coli; BX-1373, MHA, Table 1, read-out: MIC): 0.2 mg/L (≈ 0.349 µM)
- MIC (E. coli; Ec-1 NIHJ, HIA, Table 4, read-out: MIC): 0.05 mg/L (≈ 0.0873 µM)
- MIC (E. coli; Ec-1 NIHJ, MHA, Table 3, read-out: MIC): 0.2 mg/L (≈ 0.349 µM)
- MIC (E. coli; Ec-1 NIHJ, MHA, Table 4, read-out: MIC): 0.05 mg/L (≈ 0.0873 µM)
- MIC (E. coli; Ec-1 NIHJ, NA, Table 4, read-out: MIC): 0.1 mg/L (≈ 0.175 µM)
- MIC (E. coli; Ec-3 Juhl A15119, HIA, Table 4, read-out: MIC): 0.4 mg/L (≈ 0.699 µM)
- MIC (E. coli; Ec-3 Juhl A15119, MHA, Table 3, read-out: MIC): 0.2 mg/L (≈ 0.349 µM)
- MIC (E. coli; Ec-3 Juhl A15119, MHA, Table 4, read-out: MIC): 0.2 mg/L (≈ 0.349 µM)
- MIC (E. coli; Ec-3 Juhl A15119, NA, Table 4, read-out: MIC): 0.2 mg/L (≈ 0.349 µM)
- MIC (E. coli; Ec-4 A15169, MHA, Table 3, read-out: MIC): 12.5 mg/L (≈ 21.8 µM)
- MIC (E. coli; Ec-5 K-12, ML-1630 A20363, MHA, Table 3, read-out: MIC): 0.2 mg/L (≈ 0.349 µM)
- MIC (E. coli; Ec-11 A20366 (β-lactamase), HIA, Table 4, read-out: MIC): > 100 mg/L
- MIC (E. coli; Ec-11 A20366 (β-lactamase), MHA, Table 4, read-out: MIC): > 100 mg/L
- MIC (E. coli; Ec-11 A20366 (β-lactamase), NA, Table 4, read-out: MIC): > 100 mg/L
- MIC (E. coli; Ec-11 A20366, MHA, Table 3, read-out: MIC): 50 mg/L (≈ 87.3 µM)
- MIC (E. coli; Ec-34 A9660, MHA, Table 3, read-out: MIC): 0.1 mg/L (≈ 0.175 µM)
- MIC (E. coli; Ec-35 A9435, MHA, Table 3, read-out: MIC): 0.4 mg/L (≈ 0.699 µM)
- MIC (E. coli; Ec-36 A15147 (β-lactamase), HIA, Table 4, read-out: MIC): 6.3 mg/L (≈ 11 µM)
- MIC (E. coli; Ec-36 A15147 (β-lactamase), MHA, Table 4, read-out: MIC): 6.3 mg/L (≈ 11 µM)
- MIC (E. coli; Ec-36 A15147 (β-lactamase), NA, Table 4, read-out: MIC): 6.3 mg/L (≈ 11 µM)
- MIC (E. coli; Ec-36 A15147, MHA, Table 3, read-out: MIC): 3.1 mg/L (≈ 5.41 µM)
- MIC (E. coli; Ec-40 A20361, MHA, Table 3, read-out: MIC): 0.2 mg/L (≈ 0.349 µM)
- MIC (E. coli; Ec-44 A9535, MHA, Table 3, read-out: MIC): 0.1 mg/L (≈ 0.175 µM)
- MIC (E. coli; Ec-45 A15148, MHA, Table 3, read-out: MIC): 3.1 mg/L (≈ 5.41 µM)
- MIC (E. coli; Ec-46 A15164 (β-lactamase), HIA, Table 4, read-out: MIC): > 100 mg/L
- MIC (E. coli; Ec-46 A15164 (β-lactamase), MHA, Table 4, read-out: MIC): 100 mg/L (≈ 175 µM)
- MIC (E. coli; Ec-46 A15164 (β-lactamase), NA, Table 4, read-out: MIC): 50 mg/L (≈ 87.3 µM)
- MIC (E. coli; Ec-46 A15164, MHA, Table 3, read-out: MIC): 25 mg/L (≈ 43.7 µM)
- MIC (E. coli; Ec-47 A15170, MHA, Table 3, read-out: MIC): 100 mg/L (≈ 175 µM)
- MIC (E. coli; Ec-49 A20107, MHA, Table 3, read-out: MIC): 0.4 mg/L (≈ 0.699 µM)
- MIC (E. coli; Ec-50 A20109, MHA, Table 3, read-out: MIC): 0.2 mg/L (≈ 0.349 µM)
- MIC (E. coli; Ec-51 A20343 (β-lactamase), HIA, Table 4, read-out: MIC): > 100 mg/L
- MIC (E. coli; Ec-51 A20343 (β-lactamase), MHA, Table 4, read-out: MIC): > 100 mg/L
- MIC (E. coli; Ec-51 A20343 (β-lactamase), NA, Table 4, read-out: MIC): 50 mg/L (≈ 87.3 µM)
- MIC (E. coli; Ec-51 A20343, MHA, Table 3, read-out: MIC): 50 mg/L (≈ 87.3 µM)
- MIC (E. coli; Ec-56 A20365, MHA, Table 3, read-out: MIC): 25 mg/L (≈ 43.7 µM)
- MIC (E. coli; Ec-58 A9675, MHA, Table 3, read-out: MIC): 0.4 mg/L (≈ 0.699 µM)
- MIC (E. coli; Ec-59 A20766, MHA, Table 3, read-out: MIC): 0.2 mg/L (≈ 0.349 µM)
- MIC (E. coli; Ec-62 A20895, MHA, Table 3, read-out: MIC): 0.4 mg/L (≈ 0.699 µM)
- MIC (E. coli; Juhl A15119, MHA, Table 1, read-out: MIC): 0.2 mg/L (≈ 0.349 µM)
- MIC (E. coli; Juhl, MHA, Example 10, read-out: MIC): 0.2 mg/L (≈ 0.349 µM)
- MIC (E. coli; NIHJ, MHA, Example 10, read-out: MIC): 0.2 mg/L (≈ 0.349 µM)
- MIC (E. coli; NIHJ, MHA, Table 1, read-out: MIC): 0.025 mg/L (≈ 0.0437 µM)
- MIC (E. coli; strain not named (1st of 3), MHA, Example 10, read-out: MIC): 0.1 mg/L (≈ 0.175 µM)
- MIC (E. coli; strain not named (2nd of 3), MHA, Example 10, read-out: MIC): 0.05 mg/L (≈ 0.0873 µM)
- MIC (E. coli; strain not named (3rd of 3), MHA, Example 10, read-out: MIC): 3.1 mg/L (≈ 5.41 µM)
- No. of survivors/No. tested (S. aureus Smith; 0.1 mg./kg.): 2/5
- No. of survivors/No. tested (S. aureus Smith; 0.4 mg./kg.): 5/5
- No. of survivors/No. tested (S. aureus Smith; 1.6 mg./kg.): 5/5
- No. of survivors/No. tested (S. aureus Smith; 6.3 mg./kg.): 5/5
- No. of survivors/No. tested (S. aureus Smith; 25 mg./kg.): 5/5
- ED50 (S. aureus Smith; Staphylococcus aureus, read-out: PD50): 0.12 mg/kg
- MIC (St. faecalis; A9536, MHA, Table 1): 100 mg/L (≈ 175 µM)
- MIC (St. faecalis; MHA, Example 10): > 100 mg/L
- MIC (St. faecalis; Sf-3 S. faecalis A9536, HIA, Table 4): > 100 mg/L
- MIC (St. faecalis; Sf-3 S. faecalis A9536, MHA, Table 4): > 100 mg/L
- MIC (St. faecalis; Sf-3 S. faecalis A9536, NA, Table 4): > 100 mg/L
- MIC (Shig. sonnei; A9516, Table 1): 0.025 mg/L (≈ 0.0437 µM)
- MIC (Shig. sonnei; Example 10): 0.05 mg/L (≈ 0.0873 µM)
- MIC (Shig. sonnei; Ss-1 Yale, Table 3): 0.1 mg/L (≈ 0.175 µM)
- Media effect on MIC (bacteria of Table 4): little media effect
- MIC (Sal. typhosa; A9498, Table 1): 0.05 mg/L (≈ 0.0873 µM)
- MIC (Sal. typhosa; Example 10): 0.05 mg/L (≈ 0.0873 µM)
